Data from patent US10987319B2, “TFEB activator C1 ameliorates app and tau pathology and rescues cognitive deficits in neurodegenerative diseases” (Hong Kong Baptist University, priority 2018, dated 2021).
Read-outs that look alike come from different tables or passages of the source.

What was measured:
Type in all cases: in vivo
[1] = Pharmacokinetic study in mice, oral (brain and blood levels by LC/MS/MS); details: male, mouse, C57BL/6 mice, oral 10 mg/kg, brain
[2] = Distribution of C1 in brain regions, plasma and CSF of rats 30 min after oral dosing; details: Sprague-Dawley, rat, SD rats, 30 min after oral 10 mg/kg
Description: Male C57BL/6 mice and Sprague Dawley rats were purchased from Chinese University of Hong Kong, acclimatized in Hong Kong Baptist university animal house for 2 weeks. Animals were kept for 18 h fasting before the experiment. Curcumin analog C1 and curcumin were suspended in 1% CMC-Na at 10 mg/kg, given to animals through oral route at 10 ml/kg dosing volume. Blood (by heart puncture) and brain samples were collected starting from 0.25, 0.5, 1, 2, 4, 6, 8, 12 and 24 h time points (n=3 for each time point) under chloral hydrate anesthesia at 500 mg/kg (I.P. injection). Based on mice pharmacokinetic study, rat blood, brain and cerebrospinal fluids (CSF) were collected at 30 minutes time point (n=4). All blood samples were collected in heparinized tubes. Plasma was collected by centrifuging at 10,000 rpm for 10 minutes at 4° C. Blood, brain and CSF were stored in −80° C. until further analysis.
Cerebrospinal fluid (CSF) was collected by puncturing Cisterna Magna. Briefly, stereotaxic apparatus (Stoelting, Wood Dale, USA) was used for CSF collection. The tip of CSF collection needle (21G) was placed at the center of stereotaxic apparatus ear bars contact and considered it as zero point. Then rats were anaesthetized with chloral hydrate at 500 mg/kg in saline through intra-peritoneal route. Rats were fixed on the stereotaxic apparatus with 3 cm elevated body position. Rat head was positioned at nearly 110° angle between stereotaxic apparatus frame and rat nose. Cisterna magna location was identified by a 3 mm^2 depressed area between the spine and occipital protuberance in mid-sagittal plane, at 10-12 mm approximate distance from ear. The collection needle was inserted into the Cisterna magna from zero point at A−P: −1.5±1 mm, M−L: 0 mm and D−V: not more than 4-6 mm (from the skin surface). The needle was connected to a 1 ml syringe through a silicon tube. By applying a gentle negative pressure through 1 ml syringe, 100 μl of CSF without any blood contamination was collected.
Whole brain and brain parts were homogenized with 2 weight/volumes of PBS (pH=3.2), spiked with 10 μl of internal standard salbutamol (200 ng/ml in methanol). The homogenate was liquid-liquid extracted with 1 ml of ethyl acetate. 50 μl of 0.5M sodium hydroxide was added to the brain homogenate for efficient C1 extraction. After vigorous sonication and vortex mixing, samples were centrifuged at 15,000 RPM for 10 min. The supernatant was collected and vacuum dried. The samples were reconstituted with 100 μl of mobile phase (0.1% formic acid in acetonitrile), vortex mixed and transferred to an amber colored sampler vial with plastic insert.
100 μl of plasma and CSF was mixed with 100 μl of PBS (pH=3.2), 10 μl of 0.05 M sodium hydroxide and spiked with 10 μl of salbutamol (200 ng/ml in methanol). The mixture was liquid-liquid extracted with 500 μl of ethyl acetate. After vigorous sonication and vortex mixing, samples were centrifuged at 15,000 RPM for 10 min at 4° C. The supernatant was collected and vacuum dried. The samples were reconstituted with 100 μl of mobile phase (0.1% formic acid in acetonitrile), vortex mixed and transferred to an amber colored sampler vial with plastic insert.
UPLC 1290 (Agilent technologies, CA, USA) with binary pump, autosampler system, column with thermostat, vacuum degasser and 6460 QQQ Mass spectrometer was used for compound detection. Chromatographic separation was achieved by waters BEH-C18 (1.7 μm, 2.1×50 mm) column maintained at 40° C. […]

[3] = system: APP, CTFs, phosphorylated Tau, total Tau, TFEB, LC3-II; assay: Western blotting of hippocampus, female 3×Tg mice
Description: Homozygous 3×Tg mice (APP KM670/671NL (Swedish), MAPT P301L, PSEN1 M146V) were produced in Hong Kong Baptist University animal house and maintained at 23±2° C. temperature, 60±15% relative humidity with free access to food and water ad libitum.
Brain tissues were lysed with RIPA buffer (TBS with 1% NP-40, 1% sodium deoxycholic acid, 0.1% SDS, and protease phosphatase inhibitor cocktails) and centrifuged at 15,000 RPM for 30 min. Supernatant is collected and the pellets were further lysed with 2% SDS in RIPA buffer. Protein concentration was estimated by BCA assay. […] Protein chemiluminescence signal was detected by using ECL kit and quantified using ImageJ software.

`COc1ccccc1/C=C/C(=O)/C=C/c1ccccc1OC` [Compound C1, 1,5-bis(2-methoxyphenyl)penta-1,4-dien-3-one] gave a Tmax [1] of 30 min, a Cmax ([1]; read-out: maximum concentration (Cmax) in the brain) of 1310 ± 89 ng/g and a concentration at 30 min ([2]; cerebrospinal fluid, read-out: level of C1 in CSF) of 102 ± 52.4 ng/mL. The concentration at 30 min ([2]; frontal cortex, read-out: concentration of C1 in the frontal cortex) was 58 ± 18.6 ng/g, the concentration at 30 min ([2]; hippocampus, read-out: concentration of C1 in the hippocampus) was 68.4 ± 21.7 ng/g and the concentration at 30 min ([2]; plasma, read-out: level of C1 in plasma) was 352 ± 21.4 ng/mL. The concentration at 30 min ([2]; striatum, read-out: concentration of C1 in the striatum) was 4.69 ± 2.19 ng/g, the “hippocampal CTFs” value ([3]; 10 mg/kg oral 7 months) was “significantly reduced” and the “hippocampal Fl-APP levels” value ([3]; 10 mg/kg oral 7 months) was “but not Fl-APP levels”. For the same molecule, the “levels of phosphorylated Tau (PHF1, AT8)” value ([3]; hippocampus, 10 mg/kg oral 7 months) was “significantly decreased”, the “levels of LC3-II” value ([3]; oral 7 months) was “significantly increased” and the “levels of nuclear TFEB” value ([3]; oral 7 months) was “significantly increased”.
